Assays:
Saccharomyces cerevisiae [1] = experiment: Repair of photoinduced lesions in yeast (repair mutants, agar holding); type: cell-based
Excerpt: Biophys. Acta, 395, 393-404.
Consequently, it appears that the excision repair pathway in wild type and rad9-4 cells is essential in AHR for both compounds.

Saccharomyces cerevisiae [2] = experiment: Induction of cytoplasmic "petite" mutations in yeast; details: compared at the same survival level (10%)
Procedure: (§1) A wild-type strain 211-1aM (29) of Saccharomyces cerivisiae was used, and the following mutants derived from it: S24-12c rad2-20 deficient in excision repair and S25-13b rad9-4 likely to be blocked in a recombinational repair pathway; a double mutant S 2057NL-24 rad2-20 -rad9-4 clone B was obtained by tetrad analysis of a heterozygote [formula]
(§2) The media and culture conditions used were as described in D. Averbeck, E. Moustacchi, (1975) Biochim. Biophys. Acta, 395, 393-404.
(§3) 10^6 cells/ml in saline (0.9% NaCl) were treated for 30 minutes with the drugs at a final concentration of 10 μg/ml and 1.2% ethanol present.
A Philips HPW 125 culot Edison high pressure mercury lamp was used with maximal output at the wavelength 365 nm. The irradiation dose measured by actinometry was 10 J/m^2 per sec., using the following set up: 10 ml of actinometer solution (or the cell suspension, usually 1×10^6 cells/ml), stirred continuously by a magnetic stirrer, were irradiated at room temperature in an open Petri dish of 10 cm diameter at a distance of 10 cm from the center of the light bulb which was mounted horizontally. A 2 mm thick pyrex glass sheet (20×25 cm) was placed in the center of the light beam to cut out UV light of wavelength below 340 nm. […]

yeast DNA [3] = experiment: Photobinding to yeast DNA in vivo (radiolabelled drug plus 365 nm light); type: binding, Saccharomyces cerevisiae
Procedure: (§4) The radioactivity of an aliquot (0.1 ml) of this solution was measured in 5 ml of scintillation mixture (Nuclear Entreprise, Ltd., Edinburgh, Scotland, NE 250).
(§5) For the in vivo determinations stationary phase cells of the haploid wild type strain N 123 were prepared as previously described.
(§6) 2 ml cell suspensions were exposed to several doses of 365 nm light. In parallel, non irradiated samples were incubated for the same periods. Immediately after incubation and/or irradiation, the samples were centrifuged and the pellet was washed 3 times with 5 ml of saline (0.9% NaCl). The washed cell pellet was resuspended in 1 ml of saline and 1 ml of 2 N NaOH was added in order to hydrolyze the RNA. The suspension was incubated overnight in the dark at room temperature, then cooled down on ice, and 2 ml of 50% TCA were added slowly. The samples were left 20 minutes on ice and the precipitated DNA was filtered on a glass fiber filter disc (Whatman GF/A, 2.1 cm diameter). In some cases the filtrate containing the acid-soluble material was kept aside, and the radioactivity of an aliquot added to 5 ml of NE250 scintillation mixture measured. The precipitate was washed 3 times with 5 ml of 5% cold TCA and 5 ml of 70% ethanol. The filters were then dried and the radioactivity measured in plastic counting vials containing 5 ml of scintillation mixture (NE 250) in a Tricarb Packard scintillation spectrophotometer.

yeast RNA = experiment: Photobinding to yeast RNA in vivo (radiolabelled drug plus 365 nm light); type: binding, Saccharomyces cerevisiae; details: for cpm for 10^8 cells: RNA; for Molecules 8-MOP/μg DNA / μg 8-MOP/μg DNA: binding to RNA
Procedure: as §4, §5, §6

calf thymus DNA = experiment: Photobinding to native calf thymus DNA in vitro; type: binding
Procedure: These determinations were done in vitro and in vivo. […] The thickness of the irradiated sample was 1 mm. After irradiation, the solution was diluted by a factor of 2, and NaCl was added to a final concentration of 1 M. The DNA was precipitated with 2 volumes of cold pure ethanol. The samples were left overnight in the cold at -20° C. The precipitate was then washed by centrifugation three times with 3 ml of 70% ethanol and redissolved in 3 ml of water. The DNA recovery was checked by determination of the optical density of the solution at 260 nm.

yeast DNA [4] = experiment: Melting and reassociation (cross-link formation) of yeast DNA treated in vitro plus 365 nm light; type: biochemical
Procedure: Measurement of the melting and reassociation characteristics of yeast DNA:
Biophys. […] The fractions containing the nuclear DNA were pooled and dialysed against a 0.1 M, pH 7 phosphate buffer. […] Unirradiated samples of DNA with or without the drugs were taken as references.
The cross-links formation of the two furocoumarins with native yeast DNA was tested by measuring the denaturation and renaturation pattern.

Saccharomyces cerevisiae [5] = system: Saccharomyces cerevisiae
Procedure: as §1, §2, §3
A Philips HPW 125 culot Edison high pressure mercury lamp was used with maximal output at the wavelength 365 nm. The irradiation dose measured by actinometry was 10 J/m^2 per sec., using the following set up: 10 ml of actinometer solution (or the cell suspension, usually 1×10^6 cells/ml), stirred continuously by a magnetic stirrer, were irradiated at room temperature in an open Petri dish of 10 cm diameter at a distance of 10 cm from the center of the light bulb which was mounted horizontally. A 2 mm thick pyrex glass sheet (20×25 cm) was placed in the center of the light beam to cut out UV light of wavelength below 340 nm. Overheating was prevented either by a continuous flow of compressed air between the light bulb and the glass or by a pyrex glass water filter of 3 cm total thickness. An accumulative irradiation dose was given to the same sample. After each dose 0.1 ml of irradiated cell suspension was taken, diluted and aliquots plated.

[6] = 8-MOP, 15 min, 18.9 × 10^4 ergs.mm^-2 365 nm
[7] = 8-MOP, 30 min, 37.8 × 10^4 ergs.mm^-2 365 nm
[8] = 8-MOP, 60 min, 75.6 × 10^4 ergs.mm^-2 365 nm
[9] = 8-MOP, 90 min, 113.4 × 10^4 ergs.mm^-2 365 nm
[10] = 8-MOP, 120 min, 151.2 × 10^4 ergs.mm^-2 365 nm
[11] = 15 min, 18.9 × 10^4 ergs.mm^-2 365 nm
[12] = 30 min, 37.8 × 10^4 ergs.mm^-2 365 nm
[13] = 60 min, 75.6 × 10^4 ergs.mm^-2 365 nm
[14] = 90 min, 113.4 × 10^4 ergs.mm^-2 365 nm
[15] = 120 min, 151.2 × 10^4 ergs.mm^-2 365 nm
[16] = equimolar concentration to 3-CPs
[17] = 7.5 × 10^-5, 30 min, 37.8 erg. cm^-2 365 nm (so in the source)
[18] = 7.5 × 10^-5, 60 min, 75.6 erg. cm^-2 365 nm (so in the source)
[19] = 7.5 × 10^-5, 90 min, 113.4 erg. cm^-2 365 nm (so in the source)
[20] = 7.5 × 10^-5, 120 min, 151.2 erg. cm^-2 365 nm (so in the source)
[21] = 7.5 × 10^-5, 180 min, 226.8 erg. cm^-2 365 nm (so in the source)

COc1c2occc2cc2ccc(=O)oc12 [Example 8-MOP, 8-methoxypsoralen, reference compound]
dark repair by strain defective in excision (Saccharomyces cerevisiae [1]; agar holding): unable to perform a dark repair | interaction between rad2 and rad9 repair pathways (Saccharomyces cerevisiae [1]; plus 365 nm light): additive interaction | kinetics of agar holding recovery (AHR) (Saccharomyces cerevisiae [1]; wild-type cells): same kinetics of AHR | induction of cytoplasmic "petite" mutations (Saccharomyces cerevisiae [2]): less reactive | cpm for 10^8 cells (yeast DNA [3]; [6]): 1161 cpm for 10^8 cells | cpm for 10^8 cells (yeast DNA [3]; [7]): 1474 cpm for 10^8 cells | cpm for 10^8 cells (yeast DNA [3]; [8]): 2805 cpm for 10^8 cells | cpm for 10^8 cells (yeast DNA [3]; [9]): 5582 cpm for 10^8 cells | cpm for 10^8 cells (yeast DNA [3]; [10]): 5572 cpm for 10^8 cells | Molecules 8-MOP/μg DNA (yeast DNA [3]; 15-120 min, no 365 nm light): 0.034 Molecules 8-MOP/μg DNA × 10^14 | cpm for 10^8 cells (yeast DNA [3]; 15-120 min, no 365 nm light): 404.75 cpm for 10^8 cells | μg 8-MOP/μg DNA (yeast DNA [3]; 15-120 min, no 365 nm light): 0.126 μg 8-MOP/μg DNA × 10^-2 | molecules linked to DNA per cell (yeast DNA [3]; 18.9×10^3 J/m^2, 5×10^-5 M): 0.5×10^6 molecules per cell | binding to DNA in vivo compared with in vitro (yeast DNA [3]; 365 nm light): much higher in the in vivo condition than in vitro | Molecules 8-MOP/μg DNA (yeast DNA [3]; [11]): 0.10 Molecules 8-MOP/μg DNA × 10^14 | μg 8-MOP/μg DNA (yeast DNA [3]; [11]): 0.36 μg 8-MOP/μg DNA × 10^-2 | Molecules 8-MOP/μg DNA (yeast DNA [3]; [12]): 0.13 Molecules 8-MOP/μg DNA × 10^14 | μg 8-MOP/μg DNA (yeast DNA [3]; [12]): 0.46 μg 8-MOP/μg DNA × 10^-2 | Molecules 8-MOP/μg DNA (yeast DNA [3]; [13]): 0.24 Molecules 8-MOP/μg DNA × 10^14 | μg 8-MOP/μg DNA (yeast DNA [3]; [13]): 0.86 μg 8-MOP/μg DNA × 10^-2 | Molecules 8-MOP/μg DNA (yeast DNA [3]; [14]): 0.48 Molecules 8-MOP/μg DNA × 10^14 | μg 8-MOP/μg DNA (yeast DNA [3]; [14]): 1.72 μg 8-MOP/μg DNA × 10^-2 | Molecules 8-MOP/μg DNA (yeast DNA [3]; [15]): 0.48 Molecules 8-MOP/μg DNA × 10^14 | μg 8-MOP/μg DNA (yeast DNA [3]; [15]): 1.72 μg 8-MOP/μg DNA × 10^-2 | light dose dependence of binding with DNA (yeast DNA [3]; [16]): increases linearly in the range of light doses used | photoaffinity for RNA (yeast RNA): relatively low photoaffinity for RNA | cpm for 10^8 cells (yeast RNA; [6]): 7400 cpm for 10^8 cells | cpm for 10^8 cells (yeast RNA; [7]): 12920 cpm for 10^8 cells | cpm for 10^8 cells (yeast RNA; [8]): 23580 cpm for 10^8 cells | cpm for 10^8 cells (yeast RNA; [9]): 34150 cpm for 10^8 cells | cpm for 10^8 cells (yeast RNA; [10]): 44060 cpm for 10^8 cells | cpm for 10^8 cells (yeast RNA; 15-120 min, no 365 nm light): 3805 cpm for 10^8 cells | Molecules 8-MOP/μg DNA (yeast RNA; 15-120 min, no 365 nm light): 0.033 Molecules 8-MOP/μg DNA × 10^14 | μg 8-MOP/μg DNA (yeast RNA; 15-120 min, no 365 nm light): 0.12 μg 8-MOP/μg DNA × 10^-2 | Molecules 8-MOP/μg DNA (yeast RNA; [11]): 0.064 Molecules 8-MOP/μg DNA × 10^14 | μg 8-MOP/μg DNA (yeast RNA; [11]): 0.228 μg 8-MOP/μg DNA × 10^-2 | Molecules 8-MOP/μg DNA (yeast RNA; [12]): 0.11 Molecules 8-MOP/μg DNA × 10^14 | μg 8-MOP/μg DNA (yeast RNA; [12]): 0.40 μg 8-MOP/μg DNA × 10^-2 | Molecules 8-MOP/μg DNA (yeast RNA; [13]): 0.20 Molecules 8-MOP/μg DNA × 10^14 | μg 8-MOP/μg DNA (yeast RNA; [13]): 0.73 μg 8-MOP/μg DNA × 10^-2 | Molecules 8-MOP/μg DNA (yeast RNA; [14]): 0.29 Molecules 8-MOP/μg DNA × 10^14 | μg 8-MOP/μg DNA (yeast RNA; [14]): 1.05 μg 8-MOP/μg DNA × 10^-2 | Molecules 8-MOP/μg DNA (yeast RNA; [15]): 0.38 Molecules 8-MOP/μg DNA × 10^14 | μg 8-MOP/μg DNA (yeast RNA; [15]): 1.36 μg 8-MOP/μg DNA × 10^-2 | light dose dependence of binding with RNA (yeast RNA; [16]): increases linearly in the range of light doses used | μg 8-MOP/μDNA (calf thymus DNA; 7.5 × 10^-5, 0-180 min incub. (dark)): 0.031×10^-4 μg 8-MOP/μDNA | Binding yield 8-MOP molecules/nucleotide (calf thymus DNA; [17]): 1/900 | μg 8-MOP/μDNA (calf thymus DNA; [17]): 7.3×10^-4 μg 8-MOP/μDNA | Binding yield 8-MOP molecules/nucleotide (calf thymus DNA; [18]): 1/532 | μg 8-MOP/μDNA (calf thymus DNA; [18]): 12.4×10^-4 μg 8-MOP/μDNA | Binding yield 8-MOP molecules/nucleotide (calf thymus DNA; [19]): 1/428 | μg 8-MOP/μDNA (calf thymus DNA; [19]): 15.4×10^-4 μg 8-MOP/μDNA | Binding yield 8-MOP molecules/nucleotide (calf thymus DNA; [20]): 1/386 | μg 8-MOP/μDNA (calf thymus DNA; [20]): 17.1×10^-4 μg 8-MOP/μDNA | Binding yield 8-MOP molecules/nucleotide (calf thymus DNA; [21]): 1.256 molecules/nucleotide | μg 8-MOP/μDNA (calf thymus DNA; [21]): 25.8×10^-4 μg 8-MOP/μDNA | cpm/μg DNA (calf thymus DNA; 8-MOP 7.5 × 10^-5, 0-180 min incub. (dark)): 0.24 cpm/μg DNA | cpm/μg DNA (calf thymus DNA; 8-MOP 7.5 × 10^-5, 30 min, 37.8 erg. cm^-2 365 nm (so in the source)): 56.3 cpm/μg DNA | cpm/μg DNA (calf thymus DNA; 8-MOP 7.5 × 10^-5, 60 min, 75.6 erg. cm^-2 365 nm (so in the source)): 95.7 cpm/μg DNA | cpm/μg DNA (calf thymus DNA; 8-MOP 7.5 × 10^-5, 90 min, 113.4 erg. cm^-2 365 nm (so in the source)): 118.8 cpm/μg DNA | cpm/μg DNA (calf thymus DNA; 8-MOP 7.5 × 10^-5, 120 min, 151.2 erg. cm^-2 365 nm (so in the source)): 131.5 cpm/μg DNA | cpm/μg DNA (calf thymus DNA; 8-MOP 7.5 × 10^-5, 180 min, 226.8 erg. cm^-2 365 nm (so in the source)): 198.5 cpm/μg DNA | reassociation of DNA after heat denaturation (yeast DNA [4]): a fraction of the DNA is capable to renature | photosensitization of cells compared with 3-CPs or angelicin (Saccharomyces cerevisiae [5]): more photosensitized | survivors (Saccharomyces cerevisiae [5]; saline, 5 min): 10^-5
